Experimental data reported in patent US6417399B1, “Amelioration of neurological disorders by the administration of (2R),(3S), and/or (2S),3(S) stereoisomers of valnoctamide” (Yissum Research Development Company of the Hebrew …, priority 1997, dated 2002).
“And” between values parts separate entries of the source, which are not always exact repeats. Identical values can stand only once.

Key:
Format in all cases: in vivo, human
[1] = Pharmacokinetics of VCD stereoisomers in plasma after single oral dose of racemic valnoctamide to epileptic patients; details: for CL/F / Cmax / MRT / tmax / t½: single oral 400 mg racemic VCD; for half lives: epileptic patients
Protocol: (§1) Patients Six epileptic patients (four men and two women aged 23-35 years, with a body weight of 56-85 kg) were studied. All had been receiving a constant carbamazepine dose (800-1200 mg/day) for at least three months. One patient was also receiving phenytoin (250 mg/day) and a second patient phenobarbital (150 mg/day). Each patient received add-on VCD for eight consecutive days at a dosage of 400 mg on day 1 (single dose day), followed by 200 mg three times daily (tid) for seven days. On the last day, only the morning and the midday doses were administered. Blood samples for plasma VCD levels were collected at 0, 0.25, 0.5, 1, 1.5, 2, 3, 4, 5, 6, 8, 10, 12 and 24 hours after the first and the last morning dose. Additional samples were taken at times 0, 0.5, 1, and 2 hours after the morning dose on the last treatment day.
(§2) Plasma Handling and Analytical Assays Plasma samples were separated immediately by centrifugation at 2,000 g for 10 minutes and stored at −20° C. until assaying (VCD is stable at −20° C.). The VCD plasma samples were analyzed by a gas chromatograph (HP 5890 series II)-mass spectrometer (HP 5989A)-GC-MS data system equipped with chiral capillary column. The mass spectrometer was operated in E1 mode at 70eV, the source temperature of the MS was maintained at 200° C. and the quadruple at 100° C. Mass units and their relative abundance were calibrated with perfluorotributylamine (PFTBA). Spectra were collected in the range of […], and the chiral analysis started 18 minutes after injection. Gas chromatograph (GC) oven temperature programming conditions were as follows: 50° C. for 1 minute, then increasing at a rate of 8° C./minute until 100° C., holding for a minute then 4° C./minute until reaching a final temperature of 250° C. The injector temperature is 240° C. and the GC-MS transfer line temperature is 250° C. Inlet pressure is 5 psi with a linear flow rate 20 cm/second. Helium was used as the carrier gas. Chromatographic resolution of the VCD stereoisomers was accomplished by a direct separation on a chiral stationary phase (CSP) column. The CSP consisted of a Chirasil-γ-Dex (octakis (3-O-butanoyl-2,6-di-o-pentyl)-γ-cyclodextrin chemically linked via a 6-mono-octamethylene spacer to a dimethylpolysiloxane. The 0.25 μm Chirasil-γ-Dex was coated on a 25 m×250 μm (id) fused silica capillary column. This CSP of a cyclodextin derivative allows complete baseline resolution of the four stereoisomers (α=1.04, Rs=2.0-2.4) in 24 minutes as depicted in FIG. 2. Intra and inter-day variability in the retention times of the four VCD stereoisomers was less than 10%. A calibration curve was established by spiking drug-free plasma samples with known amounts of racemic VCD at a concentration range of 0.2 mg/L to 8 mg/L (or 0.05 mg/L to 2 mg/L of each of the four VCD stereoisomers).
(§3) Pharmacokinetic and Statistical Analysis Pharmacokinetic parameters were calculated by noncompartmental analysis according to statistical moment theory. Peak plasma concentrations (Cmax) and peak times (tmax) were derived directly from the measured values. The linear terminal slopes (λ) of the log-concentration of each VCD stereoisomer versus time curves were calculated by the peeling procedure. Half life (t½) values were calculated as 0.693/λ. Areas under the plasma concentration versus time curve (AUC), after single dosing, were calculated by the trapezoidal rule with extrapolation to infinity by dividing the last measured concentration by the terminal slope. During repeated administration AUC was calculated over the last two dosing intervals by using the trapezoidal rule. Mean residence time (MRT) was calculated after single dosing as AUMC/AUC, in which AUMC is the area under the concentration×time product versus time curve from zero to infinity. Following single dosing, oral clearance (CL/F, in which F is the oral availability) and apparent volume of distribution at steady state (Vss/F) were calculated as Dose/AUC and as MRT×CL/F, respectively. […]

[2] = Pharmacokinetics of VCD stereoisomers in plasma after single oral dose of racemic valnoctamide to healthy subjects
Protocol: Healthy Subjects Seven healthy male volunteers, aged 20-31 years, weighing 61 to 85 kg, received 2×200 mg valnoctamide tablets (Nirvanil@) at 08:00 hours after an overnight fast. Venous blood samples were taken through an indwelling catheter 0, 0.5, 1, 2, 3, 4, 5, 6, 8, 10, 12 and 24 hours after dosing. Food was witheld for 4 hours after dosing.
as §2
Pharmacokinetic and Statistical Analysis Pharmacokinetic parameters were calculated by noncompartmental analysis according to statistical moment theory. Peak plasma concentrations (Cmax) and peak times (tmax) were derived directly from the measured values. The linear terminal slopes (λ) of the log-concentration of each VCD stereoisomer versus time curves were calculated by the peeling procedure. Half life (t½) values were calculated as 0.693/λ. Areas under the plasma concentration versus time curve (AUC), after single dosing, were calculated by the trapezoidal rule with extrapolation to infinity by dividing the last measured concentration by the terminal slope. During repeated administration AUC was calculated over the last two dosing intervals by using the trapezoidal rule. Mean residence time (MRT) was calculated after single dosing as AUMC/AUC, in which AUMC is the area under the concentration×time product versus time curve from zero to infinity. Following single dosing, oral clearance (CL/F, in which F is the oral availability) and apparent volume of distribution at steady state (Vss/F) were calculated as Dose/AUC and as MRT×CL/F, respectively. Following repeated dosing, CL/F was calculated from the quotient of the dose (200 mg) and the AUC obtained during one dosing interval (defined as one-half of the AUC calculated over two consecutive dosing intervals). Comparison of the pharmacokinetic parameters of all four VCD stereoisomers was made by ANOVA.

[3] = Pharmacokinetics of VCD stereoisomers in plasma after repeated oral dosing of racemic valnoctamide to epileptic patients; details: repeated oral racemic VCD 200 mg tid, last day
Protocol: as §1, §2, §3

[4] = Mean ± SD of six epileptic patients
[5] = individual epileptic patients on carbamazepine
[6] = Mean ± SD of seven healthy subjects, single oral 400 mg racemic VCD
[7] = individual healthy subjects, single oral 400 mg racemic VCD
[8] = individual healthy subjects, single oral 400 mg racemic VCD (Nirvanil), stereoisomer in plasma
[9] = individual epileptic patients, last dosing interval

Compound | CL/F [1, 4] [L/h] | Cmax [1, 4] [mg/L] | MRT [1, 4] [h] | tmax [1, 4] [h] | t½ [1, 4] [h] | half lives [1] | CL/F [1, 5] | Cmax [1, 5] | MRT [1, 5] | tmax [1, 5] | t½ [1, 5] | CL/F [2, 6] [L/h] | Cmax [2, 6] [mg/L] | MRT [2, 6] [h] | tmax [2, 6] [h] | t½ [2, 6] [h] | CL/F [2, 7] | Cmax [2, 7] | MRT [2, 7] | tmax [2, 7] | also measured
CCC(C)C(CC)C(N)=O (single isomer, unassigned; stereoisomer b) [Stereoisomer B] | 80 ± 20 | 0.41 ± 0.12 | 4.0 ± 1.6 | 0.75 ± 0.41 | 3.0 ± 1.3 | about 3 h | 108 L/h and 60 L/h and 94 L/h and 84 L/h and 56 L/h and 79 L/h | 0.31 mg/L and 0.56 mg/L and 0.3 mg/L and 0.48 mg/L and 0.51 mg/L and 0.32 mg/L | 3.6 h and 5.2 h and 3.3 h and 1.3 h and 5.1 h and 5.6 h | 1 h and 0.5 h (4×) and 1.5 h | 1.4 h and 4.0 h (2×) and 1.3 h and 3.0 h and 4.1 h | 8.7 ± 0.9 | 1.3 ± 0.2 | 8 ± 1 | 0.7 ± 0.3 | 5.8 ± 1.1 | 7.9 L/h (2×) and 9.2 L/h and 8.4 L/h and 10.2 L/h and 8.1 L/h and 9.3 L/h | 1.5 mg/L (2×) and 1.1 mg/L (2×) and 1.4 mg/L (3×) | 7.0 h and 10 h (2×) and 7 h and 9 h and 8 h (2×) | 1 h (3×) and 0.5 h (4×) | t½ ([2]; Mean ± SD of seven healthy subjects, single oral 400 mg racemic VCD, listed as stereoisomer B): ~5.8 h; t½ [2, 8]: 4.7 h and 7.3 h and 4.6 h and 6.0 h and 5.8 h and 5.2 h and 7.1 h; CL/F [3, 4]: 58 ± 14 L/h; Cmax [3, 4]: 0.4 ± 0.1 mg/L; tmax [3, 4]: 1.4 ± 0.3 h; t½ [3, 4]: 2.2 ± 0.5 h; CL/F ([3]; individual epileptic patients): 79 L/h and 50 L/h (2×) and 52 L/h and 71 L/h and 46 L/h; Cmax ([3]; individual epileptic patients): 0.4 mg/L (2×) and 0.5 mg/L (2×) and 0.3 mg/L (2×); tmax ([3]; individual epileptic patients): 2.0 h and 1.5 h (3×) and 1.0 h and 1.25 h; t½ [3, 9]: 2.0 h and 1.9 h and 2.9 h and 2.1 h and 4.3 h (2×)
CCC(C)C(CC)C(N)=O (single isomer, unassigned; stereoisomer c) [Stereoisomer C] | 39 ± 8 | 0.7 ± 0.12 | 4.8 ± 0.4 | 0.83 ± 0.5 | 3.3 ± 0.5 | about 3 h | 50 L/h and 31 L/h and 44 L/h and 38 L/h and 28 L/h and 41 L/h | 0.55 mg/L and 0.82 mg/L and 0.56 mg/L and 0.76 mg/L and 0.8 mg/L and 0.7 mg/L | 4.4 h and 4.8 h (2×) and 4.2 h and 5.4 h and 5.0 h | 1.5 h (2×) and 0.5 h (4×) | 2.8 h and 3.4 h and 2.6 h and 3.7 h (2×) and 3.5 h | 4.3 ± 0.4 | 1.6 ± 0.2 | 15 ± 3 | 0.7 ± 0.3 | 10.3 ± 1.9 | 4.0 L/h and 5.1 L/h and 4.3 L/h and 4.1 L/h (2×) and 4.6 L/h and 3.9 L/h | 1.8 mg/L (2×) and 1.4 mg/L and 1.7 mg/L (2×) and 1.6 mg/L and 1.5 mg/L | 12 h (2×) and 18 h (2×) and 14 h and 16 h and 13 h | 1 h (3×) and 0.5 h (4×) | t½ ([2]; Mean ± SD of seven healthy subjects, single oral 400 mg racemic VCD, listed as C): approximately 10 h; t½ [2, 8]: 8.4 h and 13 h and 8.0 h and 10 h and 11.1 h and 9.2 h and 12.4 h; CL/F [3, 4]: 27 ± 5 L/h; Cmax [3, 4]: 0.8 ± 0.2 mg/L; tmax [3, 4]: 1.4 ± 0.3 h; t½ [3, 4]: 2.9 ± 0.9 h; CL/F ([3]; individual epileptic patients): 26 L/h and 23 L/h (2×) and 24 L/h and 36 L/h and 28 L/h; Cmax ([3]; individual epileptic patients): 0.81 mg/L and 0.9 mg/L and 0.62 mg/L and 0.7 mg/L and 0.6 mg/L and 1.0 mg/L; tmax ([3]; individual epileptic patients): 2.0 h and 1.5 h (3×) and 1.0 h and 1.25 h; t½ [3, 9]: 2.2 h and 3.0 h and 4.1 h (2×) and 2.3 h and 5.0 h
CCC(C)C(CC)C(N)=O (single isomer, unassigned; stereoisomer d) [Stereoisomer D] | 46 ± 11 | 0.61 ± 0.11 | 4.7 ± 1.0 | 0.83 ± 0.51 | 3.3 ± 1.1 | about 3 h | 60 L/h and 35 L/h and 45 L/h and 42 L/h (2×) and 30 L/h | 0.51 mg/L (3×) and 0.72 mg/L (2×) and 0.69 mg/L | 3.3 h and 5.2 h and 4.5 h and 5.6 h and 5.4 h and 5.3 h | 1.5 h (2×) and 0.5 h (4×) | 1.2 h and 3.8 h (3×) and 2.7 h and 3.9 h | 4.6 ± 0.7 | 1.5 ± 0.2 | 15 ± 3 | 0.7 ± 0.3 | 10 ± 2 | 4.3 L/h and 5.6 L/h and 4.8 L/h and 3.8 L/h and 5.4 L/h and 4.7 L/h and 4.1 L/h | 1.5 mg/L (3×) and 1.3 mg/L and 1.6 mg/L and 1.4 mg/L and 1.8 mg/L | 13 h (2×) and 18 h (2×) and 12 h (2×) and 19 h | 1 h (3×) and 0.5 h (4×) | t½ ([2]; Mean ± SD of seven healthy subjects, single oral 400 mg racemic VCD, listed as D): approximately 10 h; t½ [2, 8]: 8.7 h and 12.9 h and 8.0 h and 13.0 h and 9.5 h and 7.9 h and 13 h; CL/F [3, 4]: 29 ± 6 L/h; Cmax [3, 4]: 0.6 ± 0.1 mg/L; tmax [3, 4]: 1.4 ± 0.3 h; t½ [3, 4]: 3.2 ± 1.4 h; CL/F ([3]; individual epileptic patients): 36 L/h and 25 L/h (3×) and 38 L/h and 24 L/h; Cmax ([3]; individual epileptic patients): 0.7 mg/L and 0.8 mg/L and 0.6 mg/L (3×) and 0.5 mg/L; tmax ([3]; individual epileptic patients): 2.0 h and 1.5 h (3×) and 1.0 h and 1.25 h; t½ [3, 9]: 2.1 h and 2.8 h and 5.2 h and 2.5 h and 5.3 h and 4.6 h
